Test results from patent publication EP0523769B1, “Gram-positive alkaliphilic microorganisms” (GENENCOR INTERNATIONAL, INC., priority 1991, dated 1993).

System: Gram-positive alkaliphilic bacteria
Experiment: Antibiotic sensitivity, susceptibility test discs (characters 84-105)
Format: cell-based

Compound | Percentage Positive States, antibiotic sensitivity (CLUSTER 1) | Percentage Positive States, antibiotic sensitivity (CLUSTER 2) | Percentage Positive States, antibiotic sensitivity (CLUSTER 3) | Percentage Positive States, antibiotic sensitivity (CLUSTER 4) | Percentage Positive States, antibiotic sensitivity (CLUSTER 5) | Percentage Positive States, antibiotic sensitivity (CLUSTER 6)
NC[C@@H]1O[C@H](O[C@H]2[C@@H](O)[C@H](O[C@@H]3[C@@H](O)[C@H](N)C[C@H](N)[C@H]3O[C@H]3O[C@H](CN)[C@@H](O)[C@H](O)[C@H]3N)O[C@@H]2CO)[C@H](N)[C@@H](O)[C@@H]1O [Neomycin] | 0% | 0% | 0% | 50% | 17% | 0%
Gentamycin | 60% | 0% | 50% | 50% | 50% | 25%
Polymixin | 40% | 20% | 0% | 0% | 0% | 0%
Tetracyclin | 80% | 60% | 0% | 100% | 100% | 25%
